The values that follow come from publication PMC4325971, “Sex-Differences in Renal Expression of Selected Transporters and Transcription Factors in Lean and Obese Zucker Spontaneously Hypertensive Fatty Rats” (Journal of Diabetes Research, 2015).

Experiment in all cases: inhibition of [3H]cGMP uptake in OAT2-HEK293 cells
Common to all, as to type: cell-based

Assay [1] addresses T1, human OAT2 (organic anion transporter 2) (Homo sapiens, UniProt Q9Y694).
T1 construct: gene SLC22A7; full-length human OAT2 stably transfected in HEK293 cells (PortaCellTec Biosciences)
T1 sequence (Q9Y694 1-548): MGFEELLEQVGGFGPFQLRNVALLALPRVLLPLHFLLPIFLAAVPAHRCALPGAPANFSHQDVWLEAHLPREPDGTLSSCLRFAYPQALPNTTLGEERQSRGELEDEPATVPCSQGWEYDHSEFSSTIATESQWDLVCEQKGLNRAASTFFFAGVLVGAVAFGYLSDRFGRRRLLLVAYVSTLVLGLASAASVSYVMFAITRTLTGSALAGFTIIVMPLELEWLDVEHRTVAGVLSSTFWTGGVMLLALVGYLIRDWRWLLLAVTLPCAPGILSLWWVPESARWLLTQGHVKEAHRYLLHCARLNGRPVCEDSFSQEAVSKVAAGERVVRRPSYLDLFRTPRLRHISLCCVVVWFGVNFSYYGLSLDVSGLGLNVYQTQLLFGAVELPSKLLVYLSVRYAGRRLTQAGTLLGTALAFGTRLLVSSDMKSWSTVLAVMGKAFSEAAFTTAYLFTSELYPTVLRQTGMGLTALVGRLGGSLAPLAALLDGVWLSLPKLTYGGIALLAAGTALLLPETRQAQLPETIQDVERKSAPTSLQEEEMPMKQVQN
As to conditions: 500 μM inhibitor, 10 μM cGMP, 5 min, 37°C, pH 7.4.

The target of assay [2] is T1, human OAT2 (organic anion transporter 2).
For assay [3] the target is unchanged. Conditions: read-out: % inhibition at 500 μM.

Regarding `COc1ccc2c(c1)c(CC(=O)O)c(C)n2C(=O)c1ccc(Cl)cc1` [indomethacin], in assay [1], the “% inhibition at 500 μM” value is recorded as “OAT2 transport function was abolished by indomethacin”.

For `COc1cc(CC(=O)O)ccc1O` [homovanillic acid], the “% inhibition at 500 μM” value in assay [1] is “significantly decreased in the presence of the dopamine metabolite homovanillate”.

In assay [2], `CCCCNc1cc(C(=O)O)cc(S(N)(=O)=O)c1Oc1ccccc1` [bumetanide] came in with an IC50 of 130 ± 21.8 µM.

Regarding `N[C@@H](CC(=O)N1CCn2c(nnc2C(F)(F)F)C1)Cc1cc(F)c(F)cc1F` [sitagliptin], the inhibition at 500 µM in assay [3] is around 25%.

For the compound `CCOC(=O)[C@H](CCc1ccccc1)N[C@@H](C)C(=O)N1CCC[C@H]1C(=O)O` [enalapril], the “% inhibition at 500 μM” value in assay [1] was “weak inhibition of OAT2-mediated cGMP uptake by high concentrations of sitagliptin and enalapril”.
